# According to patent US9023847B2, “Azaheterocyclic compounds” (Merck Patent GmbH, priority 2009, dated 2015):
# Like-named read-outs stand apart in the source and are kept apart here.
# Molecular target: T1, P70S6K (T412E mutant, Millipore) (Homo sapiens, UniProt P23443, T412E)
# T1 construct: purchased Millipore
# Test: p70S6K enzyme assay
# Format: biochemical
# Conditions: 3 nM P70S6K, 24 μM ATP
# Outline: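 T412E-mutant P70S6K (3 nM) with 24 μM ATP and 1 μM FITC-AHA-AKRRRLSSLRA-OH S6-derived peptide in 100 mM Hepes pH 7.5, 5 mM MgCl2, 1 mM DTT, 0.015% Brij; 90 min at 25° C, EDTA stop. Phosphorylated product and substrate peptide separated and quantified by microfluidic capillary electrophoresis (Caliper LabChip 3000).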
# [1] = class symbol, read-out: IC50 (p70S6K)
# T1 sequence (P23443 whole entry T412E): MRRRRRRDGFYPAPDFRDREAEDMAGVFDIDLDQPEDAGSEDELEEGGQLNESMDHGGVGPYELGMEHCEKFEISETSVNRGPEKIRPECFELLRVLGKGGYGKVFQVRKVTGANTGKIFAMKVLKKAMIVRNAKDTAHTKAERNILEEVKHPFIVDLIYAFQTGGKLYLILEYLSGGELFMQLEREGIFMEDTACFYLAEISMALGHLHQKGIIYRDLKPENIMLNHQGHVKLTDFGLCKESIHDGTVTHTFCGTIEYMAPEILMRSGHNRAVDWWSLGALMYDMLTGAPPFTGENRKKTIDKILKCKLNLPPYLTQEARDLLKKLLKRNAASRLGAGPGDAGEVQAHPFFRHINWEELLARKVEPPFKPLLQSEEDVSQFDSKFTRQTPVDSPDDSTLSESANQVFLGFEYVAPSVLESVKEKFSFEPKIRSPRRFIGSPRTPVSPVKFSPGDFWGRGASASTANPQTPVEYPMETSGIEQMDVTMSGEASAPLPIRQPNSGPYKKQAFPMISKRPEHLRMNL
Structure (SMILES),IC50 [1],"IC50 (Table 1, 90 min at 25° C., read-out: p70S6K inhibition (IC50))"
"CC(C)(C)OC(=O)N1CCCC(NC(=O)c2sccc2Nc2ncnc3[nH]ccc23)C1 (centres unmarked) [Example 154, 3-{[3-(7H-Pyrrolo[2,3-d]pyrimidin-4-ylamino)-thiophene-2-carbonyl]-amino}-piperidine-1-carboxylic acid tert-butyl ester]",,100 to 1000 nM
"CC(C)(C)OC(=O)N1CCCC(NC(=O)c2sccc2Nc2ncnc3[nH]ccc23)C1 (centres unmarked) [Example 184, 3-{[3-(7H-Pyrrolo[2,3-d]pyrimidin-4-ylamino)-thiophene-2-carbonyl]-amino}-piperidine-1-carboxylic acid tert-butyl ester]",100 to 1000 nM,
"O=C(NCCNS(=O)(=O)c1ccccc1)c1sccc1Nc1ccnc2[nH]ccc12 [Example 71, 3-(1H-Pyrrolo[2,3-b]pyridin-4-ylamino)-thiophene-2-carboxylic acid (2-benzenesulfonylamino-ethyl)-amide]",100 to 1000 nM,
"O=C(NCCC1=CCCCC1)c1sccc1Nc1ccnc2[nH]ccc12 [Example 13, 3-(1H-Pyrrolo[2,3-b]pyridin-4-ylamino)-thiophene-2-carboxylic acid (2-cyclohex-1-enyl-ethyl)-amide]",< 100 nM,
"O=C(N[C@H](CO)c1ccccc1)c1sccc1Nc1ccnc2[nH]ccc12 [Example 44, S-[3-(1H-Pyrrolo[2,3-b]pyridin-4-ylamino)-thiophene-2-carboxylic acid (2-hydroxy-1-phenyl-ethyl)-amide]]",< 100 nM,
"O=C(NCCc1cccs1)c1sccc1Nc1ccnc2[nH]ccc12 [Example 21, 3-(1H-Pyrrolo[2,3-b]pyridin-4-ylamino)-thiophene-2-carboxylic acid (2-thiophen-2-yl-ethyl)-amide]",< 100 nM,
"O=C(NC1CCCNC1)c1sccc1Nc1ccnc2[nH]ccc12 (centres unmarked) [Example 9, 3-(1H-Pyrrolo[2,3-b]pyridin-4-ylamino)-thiophene-2-carboxylic acid piperidin-3-ylamide]",100 to 1000 nM,
"COc1cccc(C(CN)NC(=O)c2ccsc2Nc2ccnc3[nH]ccc23)c1 (centres unmarked) [Example 127, 2-(1H-Pyrrolo[2,3-b]pyridin-4-ylamino)-thiophene-3-carboxylic acid [2-amino-1-(3-methoxy-phenyl)-ethyl]-amide]",< 100 nM,

# Results, then the molecule that gave them:
IC50 [1],"IC50 (Table 1, 90 min at 25° C., read-out: p70S6K inhibition (IC50))",Structure (SMILES)
< 100 nM,,"NCC(NC(=O)c1ccsc1Nc1ccnc2[nH]ccc12)c1cccc(F)c1 (centres unmarked) [Example 108, 2-(1H-Pyrrolo[2,3-b]pyridin-4-ylamino)-thiophene-3-carboxylic acid [2-amino-1-(3-fluoro-phenyl)-ethyl]-amide]"
< 100 nM,,"CN1CCN(c2cc(C(=O)Nc3cccc(CNC(=O)c4sccc4Nc4ccnc5[nH]ccc45)c3)ccn2)CC1 [Example 163, 2-(4-Methyl-piperazin-1-yl)-N-[3-({[3-(1H-pyrrolo[2,3-b]pyridin-4-ylamino)-thiophene-2-carbonyl]-amino}-methyl)-phenyl]-isonicotinamide]"
< 100 nM,,"O=C(NCc1cccc(Cl)c1)c1sccc1Nc1ncnc2[nH]ccc12 [Example 173, 3-(7H-Pyrrolo[2,3-d]pyrimidin-4-ylamino)-thiophene-2-carboxylic acid 3-chloro-benzylamide]"
< 100 nM,,"CC(C)C[C@@H](CO)NC(=O)c1ccsc1Nc1ccnc2[nH]ccc12 [Example 117, 2-(1H-Pyrrolo[2,3-b]pyridin-4-ylamino)-thiophene-3-carboxylic acid ((S)-1-hydroxymethyl-3-methyl-butyl)-amide]"
< 100 nM,,"Nc1cccc(CNC(=O)c2ccsc2Nc2ccnc3[nH]ccc23)c1 [Example 111, 2-(1H-Pyrrolo[2,3-b]pyridin-4-ylamino)-thiophene-3-carboxylic acid 3-amino-benzylamide]"
< 100 nM,,"Cc1ccc([C@@H](CN)NC(=O)c2sccc2Nc2ccnc3[nH]ccc23)cc1 (stereo in doubt) [Example 122, 3-(1H-Pyrrolo[2,3-b]pyridin-4-ylamino)-thiophene-2-carboxylic acid (2-amino-1-p-tolyl-ethyl)-amide]"
